The target of this assay is SOS1:KRAS (G12C) interaction (Homo sapiens (Human), UniProt Q07889). Nature of the assay: SOS1 KRas(G12C) FRET Assay. The assay is classed as binding. The conditions noted are these: 0.5 nM His10-SOS1 (res. 564-1049), 2.5 nM GST-KRAS G12C (res. 1-169), 2 hrs at RT. The essentials:
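GST-KRAS G12C (res. 1-169) at 2.5 nM and His10-SOS1 (res. 564-1049) at 0.5 nM, final, in PBS with 0.1% BSA, 5 mM MgCl2, 100 mM KF, 5 mM DTT and 0.5% DMSO. After 2 h at RT, FRET read at 665/615 nm and normalized to DMSO and no-SOS1 controls. IC50 by non-linear regression.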
Sequence of SOS1:KRAS (G12C) interaction (Q07889 564-1049, stated change not applied): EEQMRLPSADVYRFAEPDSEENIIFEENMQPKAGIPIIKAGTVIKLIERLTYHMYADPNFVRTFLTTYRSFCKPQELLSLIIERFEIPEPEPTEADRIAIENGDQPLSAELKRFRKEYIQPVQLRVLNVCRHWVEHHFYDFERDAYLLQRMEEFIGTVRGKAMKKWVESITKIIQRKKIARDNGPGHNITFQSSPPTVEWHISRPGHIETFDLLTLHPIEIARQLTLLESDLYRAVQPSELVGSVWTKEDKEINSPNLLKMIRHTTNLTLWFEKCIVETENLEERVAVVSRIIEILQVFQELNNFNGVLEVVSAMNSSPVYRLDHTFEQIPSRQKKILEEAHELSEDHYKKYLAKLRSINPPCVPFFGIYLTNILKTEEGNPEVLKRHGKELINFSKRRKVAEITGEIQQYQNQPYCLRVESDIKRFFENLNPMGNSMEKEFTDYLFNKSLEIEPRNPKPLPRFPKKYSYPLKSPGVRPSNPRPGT
On to `C[C@@H](NC(=O)c1cn(C2(C)CC(F)(F)C2)c(=O)cc1N[C@H]1[C@@H]2CN(C)C[C@@H]21)c1cccc(C(F)F)c1F` [Example 224, 1-(3,3-difluoro-1-methylcyclobutyl)-N-((R)-1-(3-(difluoromethyl)-2-fluorophenyl)ethyl)-4-(((1R,5S,6s)-3-methyl-3-azabicyclo[3.1.0]hexan-6-yl)amino)-6-oxo-1,6-dihydropyridine-3-carboxamide], for which the IC50 (usually the concentration that inhibits the measured activity by half) was 46.8 nM.
The result for `C[C@@H](NC(=O)c1cn(C2(C(F)(F)F)CCC2)c(=O)cc1NC1CCN(C)CC1)c1cccc(C(F)F)c1F` [Example 225, (R)-N-(1-(3-(difluoromethyl)-2-fluorophenyl)ethyl)-4-((1-methylpiperidin-4-yl)amino)-6-oxo-1-(1-(trifluoromethyl)cyclobutyl)-1,6-dihydropyridine-3-carboxamide] reads 13.9 nM.
For `C[C@@H](NC(=O)c1cn(C2(C(F)F)CC2)c(=O)cc1NC[C@@H]1[C@H]2CN(C)C[C@@H]12)c1cccc(C(F)F)c1F` [Example 226, N-((R)-1-(3-(difluoromethyl)-2-fluorophenyl)ethyl)-1-(1-(difluoromethyl)cyclopropyl)-4-((((1R,5S,6s)-3-methyl-3-azabicyclo[3.1.0]hexan-6-yl)methyl)amino)-6-oxo-1,6-dihydropyridine-3-carboxamide] the value was 35.3 nM; for `C[C@@H](NC(=O)c1cn(C2(C(F)F)CC2)c(=O)cc1N[C@]12C[C@H]1CN(C)C2)c1cccc(C(F)F)c1F` [Example 227, N-((R)-1-(3-(difluoromethyl)-2-fluorophenyl)ethyl)-1-(1-(difluoromethyl)cyclopropyl)-4-(((1R,5S)-3-methyl-3-azabicyclo[3.1.0]hexan-1-yl)amino)-6-oxo-1,6-dihydropyridine-3-carboxamide], 61.9 nM; for `C[C@@H](NC(=O)c1cn(C2(C(F)F)CC2)c(=O)cc1N[C@@]12C[C@@H]1CN(C)C2)c1cccc(C(F)F)c1F` [Example 228, N-((R)-1-(3-(difluoromethyl)-2-fluorophenyl)ethyl)-1-(1-(difluoromethyl)cyclopropyl)-4-(((1S,5R)-3-methyl-3-azabicyclo[3.1.0]hexan-1-yl)amino)-6-oxo-1,6-dihydropyridine-3-carboxamide], 64.3 nM.
For `C[C@@H](NC(=O)c1cn(C2(C(F)F)CC2)c(=O)cc1N[C@H]1C[C@@H](N(C)C)C1)c1cccc(C(F)F)c1F` [Example 229, N-((R)-1-(3-(difluoromethyl)-2-fluorophenyl)ethyl)-1-(1-(difluoromethyl)cyclopropyl)-4-(((1s,3S)-3-(dimethylamino)cyclobutyl)amino)-6-oxo-1,6-dihydropyridine-3-carboxamide] the value was 22.7 nM; for `C[C@@H](NC(=O)c1cn(C2(C(C)(F)F)CC2)c(=O)cc1NC1CCN(C)CC1)c1cccc(C(F)F)c1F` [Example 230, (R)-1-(1-(1,1-difluoroethyl)cyclopropyl)-N-(1-(3-(difluoromethyl)-2-fluorophenyl)ethyl)-4-((1-methylpiperidin-4-yl)amino)-6-oxo-1,6-dihydropyridine-3-carboxamide], 21.9 nM; for `C[C@@H](NC(=O)c1cn(C2CC3(C2)CC(F)(F)C3)c(=O)cc1N[C@H]1[C@@H]2CN(C)C[C@@H]21)c1cccc(C(F)F)c1F` [Example 231, N-((R)-1-(3-(difluoromethyl)-2-fluorophenyl)ethyl)-1-(6,6-difluorospiro[3.3]heptan-2-yl)-4-(((1R,5S,6s)-3-methyl-3-azabicyclo[3.1.0]hexan-6-yl)amino)-6-oxo-1,6-dihydropyridine-3-carboxamide], 10.2 nM.
`C[C@@H](NC(=O)c1cn([C@@]2(C(F)(F)F)CCOC2)c(=O)cc1NC1CCN(C)CC1)c1cccc(C(F)F)c1F` [Example 232, N-((R)-1-(3-(difluoromethyl)-2-fluorophenyl)ethyl)-4-((1-methylpiperidin-4-yl)amino)-6-oxo-1-((S)-3-(trifluoromethyl)tetrahydrofuran-3-yl)-1,6-dihydropyridine-3-carboxamide] yielded an IC50 of 91.9 nM.
With `C[C@@H](NC(=O)c1cn([C@]2(C(F)(F)F)CCOC2)c(=O)cc1NC1CCN(C)CC1)c1cccc(C(F)F)c1F` [Example 233, N-((R)-1-(3-(difluoromethyl)-2-fluorophenyl)ethyl)-4-((1-methylpiperidin-4-yl)amino)-6-oxo-1-((R)-3-(trifluoromethyl)tetrahydrofuran-3-yl)-1,6-dihydropyridine-3-carboxamide], the IC50 came out at 4.8 nM.
The result for `C[C@@H](NC(=O)c1cn(C2(C(F)F)CC2)c(=O)cc1NC1CCN(C)C2(CC2)C1)c1cccc(C(F)F)c1F` (stereo partly drawn) [Example 240, N-((R)-1-(3-(difluoromethyl)-2-fluorophenyl)ethyl)-1-(1-(difluoromethyl)cyclopropyl)-4-((4-methyl-4-azaspiro[2.5]octan-7-yl)amino)-6-oxo-1,6-dihydropyridine-3-carboxamide] reads 13.5 nM; that for `C[C@@H](NC(=O)c1cn(C2(C3CCC3)CC2)c(=O)cc1NC1CCN(C)CC1)c1cccc(C(F)F)c1F` [Example 241, (R)-1-(1-cyclobutylcyclopropyl)-N-(1-(3-(difluoromethyl)-2-fluorophenyl)ethyl)-4-((1-methylpiperidin-4-yl)amino)-6-oxo-1,6-dihydropyridine-3-carboxamide], 29 nM; that for `C[C@@H](NC(=O)c1cn(C2CC23CCC(F)(F)CC3)c(=O)cc1N[C@H]1[C@@H]2CN(C)C[C@@H]21)c1cccc(C(F)F)c1F` (stereo partly drawn) [Example 242, N-((R)-1-(3-(difluoromethyl)-2-fluorophenyl)ethyl)-1-(6,6-difluorospiro[2.5]octan-1-yl)-4-(((1R,5S,6s)-3-methyl-3-azabicyclo[3.1.0]hexan-6-yl)amino)-6-oxo-1,6-dihydropyridine-3-carboxamide], 11.6 nM.
For `C[C@@H](NC(=O)c1cn([C@@H]2CCOC[C@H]2F)c(=O)cc1N[C@H]1[C@@H]2C[C@H]1CN(C)C2)c1cccc(C(F)F)c1F` [Example 243, N-((R)-1-(3-(difluoromethyl)-2-fluorophenyl)ethyl)-1-((3S,4R)-3-fluorotetrahydro-2H-pyran-4-yl)-4-(((1R,5Sx,6r)-3-methyl-3-azabicyclo[3.1.1]heptan-6-yl)amino)-6-oxo-1,6-dihydropyridine-3-carboxamide] the value was 6.3 nM.
The result for `C[C@@H](NC(=O)c1cn([C@@H]2CCOC[C@H]2F)c(=O)cc1N[C@@H]1[C@@H]2C[C@H]1CN(C)C2)c1cccc(C(F)F)c1F` [Example 244, N-((R)-1-(3-(difluoromethyl)-2-fluorophenyl)ethyl)-1-((3S,4R)-3-fluorotetrahydro-2H-pyran-4-yl)-4-(((1R5S,6s)-3-methyl-3-azabicyclo[3.1.1]heptan-6-yl)amino)-6-oxo-1,6-dihydropyridine-3-carboxamide] reads 18.1 nM; that for `COC12CC(CNc3cc(=O)n(C45CC(C4)C5)cc3C(=O)N[C@H](C)c3cccc(C(F)F)c3F)(C1)C2` [Example 262, (R)-1-(bicyclo[1.1.1]pentan-1-yl)-N-(1-(3-(difluoromethyl)-2-fluorophenyl)ethyl)-4-(((3-methoxybicyclo[1.1.1]pentan-1-yl)methyl)amino)-6-oxo-1,6-dihydropyridine-3-carboxamide], 116 nM; that for `C[C@@H](NC(=O)c1cn(C23COC(C(F)F)(C2)C3)c(=O)cc1NC1[C@H]2CN(C)C[C@@H]12)c1cccc(C(F)F)c1F` (stereo partly drawn) [Example 263, N-((R)-1-(3-(difluoromethyl)-2-fluorophenyl)ethyl)-1-(1-(difluoromethyl)-2-oxabicyclo[2.1.1]hexan-4-yl)-4-(((1R,5S,6s)-3-methyl-3-azabicyclo[3.1.0]hexan-6-yl)amino)-6-oxo-1,6-dihydropyridine-3-carboxamide], 14.9 nM.
`CC(=O)N1CCC(C)(n2cc(C(=O)N[C@H](C)c3cccc(C(F)F)c3F)c(NC3CCN(C)CC3)cc2=O)C1` (stereo partly drawn) [Example 264, 1-(1-acetyl-3-methylpyrrolidin-3-yl)-N-((R)-1-(3-(difluoromethyl)-2-fluorophenyl)ethyl)-4-((1-methylpiperidin-4-yl)amino)-6-oxo-1,6-dihydropyridine-3-carboxamide] showed an IC50 of 2.2 nM.
The result for `C[C@@H](NC(=O)c1cn(C2(C)CCN(C(=O)C3(F)CC3)C2)c(=O)cc1NC1CCN(C)CC1)c1cccc(C(F)F)c1F` (stereo partly drawn) [Example 267, N-((R)-1-(3-(difluoromethyl)-2-fluorophenyl)ethyl)-1-(1-(1-fluorocyclopropane-1-carbonyl)-3-methylpyrrolidin-3-yl)-4-((1-methylpiperidin-4-yl)amino)-6-oxo-1,6-dihydropyridine-3-carboxamide] reads 2.44 nM; that for `C[C@@H](NC(=O)c1cn([C@@]2(C)CCN(C(=O)C3(F)CC3)C2)c(=O)cc1NC1CCN(C)CC1)c1cccc(C(F)F)c1F` [Example 268, N-((R)-1-(3-(difluoromethyl)-2-fluorophenyl)ethyl)-1x-((S)-1-(1-fluorocyclopropane-1-carbonyl)-3-methylpyrrolidin-3-yl)-4-((1-methylpiperidin-4-yl)amino)-6-oxo-1,6-dihydropyridine-3-carboxamide], 32.8 nM.
For `C[C@@H](NC(=O)c1cn([C@]2(C)CCN(C(=O)C3(F)CC3)C2)c(=O)cc1NC1CCN(C)CC1)c1cccc(C(F)F)c1F` [Example 269, N-((R)-1-(3-(difluoromethyl)-2-fluorophenyl)ethyl)-1-((R)-1-(1-fluorocyclopropane-1-carbonyl)-3-methylpyrrolidin-3-yl)-4-((1-methylpiperidin-4-yl)amino)-6-oxo-1,6-dihydropyridine-3-carboxamide] the value was 1.21 nM.
